Common to all, as to experiment: NCI-60 cell line screen, 48 h
For test [1], the system named is XF498.
Test [2] deals with DMS-273.
Test [3] concerns DLD-1.
Test [4] concerns RXF 631.
For test [5], the system named is KM-20L2.
The subject of test [6] is SNB-78.
For test [7], the system named is M19-MEL.
The subject of test [8] is DMS-114.
Test [9] has as its system HOP-18.

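All cell lines were grown in 96-well plates and treated with compound for 48 hours. GI50 is the concentration that inhibits growth by half.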 Calls of active or inactive are those of the source. No stated cut-off is given here; in the data, active = GI50 up to about 1.1 µM and inactive = higher. Bounds are passed on as bounds.

For the compound `COc1ccccc1NC(=O)C(CC(C(=O)Nc1ccccc1OC)/C(C)=N/NC(=O)c1ccccc1O)/C(C)=N/NC(=O)c1ccccc1O` (stereo not given), the GI50 in [1] is > 100 µM (inactive); in test [2] it was > 100 µM (inactive); in test [3], 57.5 µM (inactive); in test [4] it was 69.8 µM (inactive); in test [5], > 100 µM (inactive); in test [6] it was > 100 µM (inactive). Besides, the GI50 in test [7] was > 100 µM (inactive); in [8], 70.8 µM (inactive).

With `CC(Cn1c2c3ccccc3ccc2c2oc(=O)c3ccccc3c21)N(C)C` (stereo not given), the GI50 in [1], in [3], in test [5], in test [6] and in test [8] was > 100 µM (inactive) throughout.

Take `COc1cccc(C2c3cc4c(cc3OC(O)(CO)C2C(=O)O)OCO4)c1.COc1cccc(C2c3cc4c(cc3OC3(O)COC(=O)C23)OCO4)c1` (stereo not given): the GI50 is 65.3 µM (inactive) in test [2]; 48.9 µM (inactive) in test [3]; > 100 µM (inactive) in test [9]; 75.5 µM (inactive) in test [4]; > 100 µM (inactive) in test [5]; 76.9 µM (inactive) in test [7]. The GI50 in [8] is 49.4 µM (inactive).

Take `COC(=O)C(c1ccc(OC)cc1)N1C(=O)[C@@H](NC(=O)c2ccccc2)[C@H]1[C@@H](C)O` (stereo not given in full): the GI50 in [1], in [2], in [3], in [5], in test [6] and in test [7] was > 100 µM (inactive) each time.

As to `COC(OC)[C@@H](C)[C@H](O)[C@](C)(O)C1OC(C)(C)OC(C(C)C=C(C)C)C1C` (stereo not given in full), the GI50 in [1], in [2], in test [3], in test [9], in test [5] and in [6] was > 100 µM (inactive) each time. Besides, the GI50 is > 100 µM (inactive) in [7] and 94.6 µM (inactive) in test [8].

As to `CSc1ccc2c(cc1=O)[C@@H](NC(=O)c1ccc(F)cc1)CCc1cc(O)c(O)c(O)c1-2`, the GI50 in test [2], in [3], in test [9], in test [4], in [5] and in [6] was > 100 µM (inactive) throughout. For the same compound, the GI50 in test [7] and in [8] was > 100 µM (inactive) throughout.

With `COc1ccc2c(c1)c1ccc3c(c1n2C)C(=O)C=CC3=O`, the GI50 in [1] is 17.2 µM (inactive); in [2], 24.3 µM (inactive); in test [3], 7.4 µM (inactive); in [9], 12.2 µM (inactive); in test [4], 20 µM (inactive); in test [5], 38.5 µM (inactive). The results for the GI50 in test [6], in [7] and in [8] were 20.9 µM (inactive), 25.4 µM (inactive) and 20.7 µM (inactive), respectively.

As to `CCCCCCCCCCCCCCCCP(=O)(OC)OC`, the GI50 in test [1] was 13.1 µM (inactive); in test [2], 14.5 µM (inactive); in test [3] it was 17.5 µM (inactive); in test [9] it was 15 µM (inactive); in test [4], 16.9 µM (inactive); in test [5], 22.4 µM (inactive). In addition, the results for the GI50 in test [6], in [7] and in test [8] were 17.7 µM (inactive), 16.4 µM (inactive) and 16.1 µM (inactive), respectively.

Consider `CCc1cccc(C(C)CC)c1NC(=O)C(=O)C(CC(=O)Nc1ccc(Cl)c(Cl)c1)C(=O)OC` (stereo not given), for which the GI50 in [2] was 15.9 µM (inactive); in [3], > 100 µM (inactive); in test [5] it was 19.8 µM (inactive); in test [6], > 100 µM (inactive); in test [7], 36.8 µM (inactive); in [8] it was 36.8 µM (inactive).

Turning to `O=c1[nH]c2cc([N+](=O)[O-])ccc2nc1/C(=N/Nc1ccccc1)C(O)c1ccccc1Cl` (stereo not given), the GI50 in test [1] was > 100 µM (inactive); in test [2], 34.8 µM (inactive); in test [3], > 100 µM (inactive); in test [5], 14.9 µM (inactive); in test [6], > 100 µM (inactive); in [7], 52.8 µM (inactive). The GI50 in test [8] was 6.75 µM (inactive).

Consider `[O-]c1c2cc(-[n+]3c(-c4ccccc4)cc(-c4ccccc4)cc3-c3ccccc3)cc1COCCOCCOCCOCCOC2`, for which the GI50 in test [2] is 45.9 µM (inactive); in test [3], 44 µM (inactive); in test [9] it was 57.3 µM (inactive); in [5], 31.3 µM (inactive); in [7], 30.8 µM (inactive).

Consider `CCCCCCn1c(SCC)c2ccccc2c1-c1nc(F)nc(F)n1`, for which the GI50 in test [1], in test [2], in test [3], in test [5], in test [6] and in test [7] was > 100 µM (inactive) in each case. Besides, the GI50 in test [8] is > 100 µM (inactive).

In the case of `C=CCn1c(=S)sc2c(C(=O)OCC)c3c(C)cc(C)cn3c2c1=O`, the GI50 in test [2], in test [3], in test [5], in [6] and in [7] was > 100 µM (inactive) throughout.

Regarding `CCC(/C=C/C1OC(=O)C=CC1C)=C\C(C)C/C=C/C(C)=C/C(C)C(=O)C(C)C(O)C(C)C/C(C)=C/C(=O)O` (stereo not given), the GI50 in [2] is 1.1 µM (active); in test [3] it was 1.43 µM (inactive); in test [9], 6.04 µM (inactive); in test [5], 4.13 µM (inactive); in [6], 3.21 µM (inactive); in [7] it was 1.16 µM (inactive). In [8], the GI50 was 0.847 µM (active).

Consider `CCOC(=O)C(=O)Nc1c(F)cc(F)cc1Br`, for which the GI50 in [1], in test [3], in test [5], in test [6], in test [7] and in test [8] was > 100 µM (inactive) throughout.

For the compound `COc1ccc2c(=O)c(-c3cc(OC)c(OC)cc3OC)coc2c1`, the GI50 was 2.58 µM (inactive) in test [1]; 1.85 µM (inactive) in test [2]; 3.95 µM (inactive) in test [3]; 5.4 µM (inactive) in test [4]; 2.05 µM (inactive) in test [5]; 4.21 µM (inactive) in test [6]. For the same compound, the GI50 in [7] was 4.15 µM (inactive); in test [8], 3.02 µM (inactive).

For the compound `O=C1/C(=C/c2ccccc2)CN(C(=O)Oc2ccc([N+](=O)[O-])cc2)C/C1=C\c1ccccc1`, the GI50 in [1] was > 10 µM (inactive); in [2] it was 0.883 µM (active); in test [3] it was 1.79 µM (inactive); in test [9], > 10 µM (inactive); in [5] it was 4.69 µM (inactive); in test [6], 5.16 µM (inactive). The results for the GI50 in test [7] and in [8] were 1.77 µM (inactive) and 2.11 µM (inactive), respectively.

`Cc1cc(CC(O)c2ccc(Cl)c(Cl)c2)nc(O)n1` (stereo not given): the GI50 in [1] was 18.4 µM (inactive); in [3] it was 18.7 µM (inactive); in test [5], 51.1 µM (inactive); in [6], 76.2 µM (inactive); in [7] it was 58.6 µM (inactive); in test [8], 8.49 µM (inactive).

Take `Cc1cc(N(CCC#N)CCC#N)ccc1/C=C/C(=O)Nc1cccc(Cl)c1`: the GI50 is > 100 µM (inactive) in test [1]; > 100 µM (inactive) in test [2]; > 100 µM (inactive) in test [3]; > 100 µM (inactive) in test [4]; 87.1 µM (inactive) in [5]; > 100 µM (inactive) in test [7]. For the same compound, in [8], the GI50 was > 100 µM (inactive).

For the compound `Cc1ccc(Nc2nc(-c3ccc(-c4ccc([N+](=O)[O-])cc4)o3)cs2)cc1`, the GI50 in test [2] was 42.6 µM (inactive); in [3] it was 41.4 µM (inactive); in test [5], 29.6 µM (inactive); in test [6], 66.5 µM (inactive); in test [7], 51.2 µM (inactive).

For the compound `COc1ccc(/C=C2\CCCCC2=O)cc1`, the GI50 in [1], in [2], in test [3], in test [9], in [5] and in test [6] was > 100 µM (inactive) in each case. Further, the GI50 in test [7] and in test [8] was > 100 µM (inactive) throughout.

Consider `N=C(N)NS(=O)(=O)c1ccc(NC(=O)c2cccc3c(Nc4ccc(S(=O)(=O)N=C(N)N)cc4)c4ccc(Cl)cc4nc23)cc1`, for which the GI50 in [1] is 67.3 µM (inactive); in test [2], > 100 µM (inactive); in [3], 67.1 µM (inactive); in test [9] it was > 100 µM (inactive); in test [5] it was 74.8 µM (inactive); in test [6] it was 81.3 µM (inactive). Besides, the GI50 in test [8] was 31.2 µM (inactive).

On to `Cc1nc(NC(=S)NC(=O)c2ccc(Cl)c(Cl)c2)sc1C(=O)/C=C/c1ccccc1[N+](=O)[O-]`, for which the GI50 in test [1] is 20.6 µM (inactive); in test [2], 20.9 µM (inactive); in test [3] it was 48.9 µM (inactive); in [9], 12.4 µM (inactive); in test [4], 24.1 µM (inactive); in test [5] it was 18.6 µM (inactive). In addition, the GI50 was 30.1 µM (inactive) in test [6] and 26.8 µM (inactive) in [7].

As for `Nc1ncnc2c1ncn2CCCC(c1ccccc1)P(=O)(O)O` (stereo not given), the GI50 in test [1], in test [2], in test [3], in test [5], in test [6] and in test [7] was > 100 µM (inactive) each time. In addition, in test [8], the GI50 was > 100 µM (inactive).

On to `O=C(O)C#CCO`, for which the GI50 in [1], in test [2], in test [4], in [6], in test [7] and in [8] was > 100 µM (inactive) throughout.

Regarding `O=C1C(Br)=CC2(C=C1Br)CCNC1=C2C(=O)c2ccccc2C1=O`, the GI50 in test [3] was 9.25 µM (inactive); in [9], 32.2 µM (inactive); in [4] it was 5.69 µM (inactive); in [5], 7.41 µM (inactive); in test [6] it was 11.2 µM (inactive); in test [7], 4.66 µM (inactive). For the same compound, the GI50 in test [8] is 5.7 µM (inactive).

The record behind these values is ChEMBL document CHEMBL1201862, “PubChem BioAssay data set” (2004).
